Results taken from US12410185B2, “Compounds targeting mutant calreticulin” (MYELOPRO DIAGNOSTICS AND RESEARCH GmbH, priority 2018, dated 2025).

Assays:
[1] = system: Ba/F3-MPL CALR mutated cell line; assay: apoptosis assay by Annexin V/PI staining; assay type: cell-based, mouse; settings: 20 uM, 24 h
Protocol: (§1) Ba/F3-MPL CALR wild-type and mutant cell lines were treated with hematoxylin at 20 uM or the equivalent volume of DMSO for 24 h before collection. Annexin V Apoptosis Detection Kit (eBioscience, #88-8007-74) was used based on the manufacturer's instructions. 5 ul of Propidium Iodide Staining Solution (Invitrogen, #00-6990-50) was added to each sample for 10 min before being analyzed with the BD LSRFortessa™ cell analyzer without washing.

[2] = system: Ba/F3-MPL CALR wild-type control; assay: apoptosis assay by Annexin V/PI staining; assay type: cell-based, mouse; settings: 20 uM, 24 h
Protocol: as §1

[3] = biological target: T1, wild-type calreticulin (Mus musculus, UniProt P14211); assay: Western blot analysis of Ba/F3-MPL cell lines; assay type: cell-based; settings: 20 uM, 24 hours
T1 construct: endogenous in cells; host or cells: Ba/F3-MPL CALR WT and CALR WT/del79 cell lines
Protocol: (§2) 2 million Ba/F3-MPL CALR WT or mutant cells were treated with hematoxylin or the equivalent volume of DMSO in a total volume of 15 ml of RPMI media in T75 flasks (Thermal Fisher Scientific). Cells were collected and washed with PBS before being lysed in whole cell lysis buffer containing 20 mM HEPES, 20% glycerol, 50 mM KCl, 400 mM NaCl, 1 mM EDTA, 1 mM DTT, 5 mM Na orthovanadate, 0.5% NP40, 0.1% Tween 20, supplemented with cOmplete™, Mini, EDTA-free Protease Inhibitor Cocktail (Sigma) and PhosSTOP™ (Sigma). Samples were rotated at 4° C. for 20 min prior to centrifugation at […] for 20 min. The soluble fraction of the sample was collected. Protein concentration was quantified by the Bio-Rad Protein Assay (Bio-Rad) according to the manufacturer's instructions and measured by a SpectraMax Microplate Reader (Molecular Devices). Equal amounts of protein were loaded for 8% or 10% SDS-polyacrylamide gel electrophoresis prior to transfer to Amersham™ Protran® nitrocellulose membranes at 35V, 4° C. overnight. Membranes were then blocked by 5% bovine serum albumin fraction V (Sigma) or milk. Mutant calreticulin was detected by a polyclonal rabbit antibody against the mutant specific C-terminal peptide (Myelopro). […]

[4] = system: mutant CALR Ba/F3 cell lines; assay: 72 h dose response test, CellTiter-Glo cell viability assay; assay type: cell-based, mouse; settings: 72 h dose response test
[5] = system: hematoxylin-resistant Ba/F3-MPL CALR mutant cell lines; assay: dose response test in hematoxylin-resistant cell lines; assay type: cell-based, mouse; settings: lines selected under 20 uM hematoxylin for 4 weeks
Protocol: FIG. 21: Dose response of hematoxylin in Ba/F3-MPL resistant cell lines. Ba/F3-MPL CALR del79/WT and Ba/F3-MPL CALR del37/del37 were cultured with hematoxylin at a concentration of 20 uM for 4 weeks. CALR del79/WT resistant clone 1 and CALR del37/del37 resistant clone were cultured without cytokine. CALR del79/WT resistant clone 2 were cultured with 5% TPO.
(§3) Ba/F3-MPL CALR del79/WT and CALR del37/del37 cell lines were cultured with 20 uM of hematoxylin with or without 5% TPO continuously for 4 weeks. The cells were passaged every 3 days and seeded at 0.5 million per well in 6-well plates with addition of fresh hematoxylin and cytokine.

[6] = system: mutant calreticulin; assay: Western blot analysis of hematoxylin-resistant clones; assay type: cell-based, mouse; settings: 24 h treatment
Protocol: FIG. 22: Western blot analysis of hematoxylin resistant clones. All cells were treated for 24 h with hematoxylin before collection.
as §3
as §2, with “Equal amounts of protein were loaded for 8% or 10% SDS-polyacrylamide gel electrophoresis prior to transfer to Amersham™ Protran® nitrocellulose membranes at 35V, 4° C. overnight. Membranes were then blocked by 5% bovine serum albumin fraction V (Sigma) or milk.” left out

[7] = system: Ba/F3-MPL cell lines carrying C-terminal truncated CALR; assay: cytotoxicity assay in cell lines with C-terminal truncated CALR; assay type: cell-based, mouse; settings: truncated CALR mutations vs disease frameshift
Protocol: In order to further confirm the selective cytotoxicity of hematoxylin in CALR mutant cells, two-color competition assays were performed in both Ba/F3 and UT-7-TPO cells to assess the long-term efficacy of the compound (FIG. 9). […] The differential killing effect of hematoxylin could also be reproduced in the UT-7-TPO cell line. […] This reading frame encounters a stop codon shortly after the mutation and causes a truncation at the CALR C-terminus (FIG. 12). […] Moreover, CALR KO Ba/F3-MPL cell lines were tested for hematoxylin sensitivity.

[8] = system: mutant CALR protein; assay: binding assay (data not shown)
[9] = system: mutant calreticulin; assay: Western blot analysis of Ba/F3-MPL cell lines; assay type: cell-based, mouse; settings: 20 uM, 24 hours, heterozygous and homozygous mutant cell lines
Protocol: (§4) 2 million Ba/F3-MPL CALR WT or mutant cells were treated with hematoxylin or the equivalent volume of DMSO in a total volume of 15 ml of RPMI media in T75 flasks (Thermal Fisher Scientific). Cells were collected and washed with PBS before being lysed in whole cell lysis buffer containing 20 mM HEPES, 20% glycerol, 50 mM KCl, 400 mM NaCl, 1 mM EDTA, 1 mM DTT, 5 mM Na orthovanadate, 0.5% NP40, 0.1% Tween 20, supplemented with cOmplete™, Mini, EDTA-free Protease Inhibitor Cocktail (Sigma) and PhosSTOP™ (Sigma). Samples were rotated at 4° C. for 20 min prior to centrifugation at […] for 20 min. The soluble fraction of the sample was collected. Protein concentration was quantified by the Bio-Rad Protein Assay (Bio-Rad) according to the manufacturer's instructions and measured by a SpectraMax Microplate Reader (Molecular Devices). Equal amounts of protein were loaded for 8% or 10% SDS-polyacrylamide gel electrophoresis prior to transfer to Amersham™ Protran® nitrocellulose membranes at 35V, 4° C. overnight. Membranes were then blocked by 5% bovine serum albumin fraction V (Sigma) or milk. Mutant calreticulin was detected by a polyclonal rabbit antibody against the mutant specific C-terminal peptide (Myelopro). The other primary antibodies used were as follows: Calregulin Antibody (F-4)(sc-373863 Santa Cruz), Anti-HSC70(B-6) (J2212, Santa Cruz), Anti-Stat5 (N20)(L1112, Santa Cruz), anti-pYSTAT5 (Tyr694)(71-6900, Life Technologies), anti-TPOR/cMpl (#6944, Millipore), Cleaved PARP (Asp214) (#9548, Cell Signaling). HRP-linked anti-mouse and anti-rabbit antibodies (NA931/4, GE Healthcare Life Sciences) were used as secondary antibodies. Clarity™ Western ECL Blotting Substrates (Biorad) were used for the chemiluminescence detection method.
(§5) To confirm that the cytotoxic selectivity of hematoxylin in CALR mutant cell lines is due to a specific effect on mutant calreticulin, Ba/F3-MPL CALR WT and mutant cell lines were treated with the compound for 24 hours. […]

[10] = biological target: T2, mutant calreticulin (Mus musculus, UniProt P14211); assay: Western blot analysis of Ba/F3-MPL cell lines; assay type: cell-based; settings: time-course
T2 construct: endogenous in cells; host or cells: Ba/F3-MPL CALR WT/del79 (heterozygous) and CALR del37/del37 (homozygous) cell lines and their hematoxylin-resistant clones
Protocol: as §4, §5

T2 sequence (P14211 with tags, fused parts or gaps, stated change not applied): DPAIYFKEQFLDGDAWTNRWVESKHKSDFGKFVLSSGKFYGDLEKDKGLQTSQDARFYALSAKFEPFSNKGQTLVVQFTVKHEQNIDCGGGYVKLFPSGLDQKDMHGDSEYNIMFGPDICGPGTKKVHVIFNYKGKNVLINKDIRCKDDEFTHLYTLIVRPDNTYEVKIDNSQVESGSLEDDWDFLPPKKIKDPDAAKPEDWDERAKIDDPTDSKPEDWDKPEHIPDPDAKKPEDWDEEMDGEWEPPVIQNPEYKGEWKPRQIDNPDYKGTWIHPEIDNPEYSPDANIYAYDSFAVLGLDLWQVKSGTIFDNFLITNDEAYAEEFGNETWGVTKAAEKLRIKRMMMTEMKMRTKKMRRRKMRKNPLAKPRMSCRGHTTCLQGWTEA
T1 sequence (P14211 18-416): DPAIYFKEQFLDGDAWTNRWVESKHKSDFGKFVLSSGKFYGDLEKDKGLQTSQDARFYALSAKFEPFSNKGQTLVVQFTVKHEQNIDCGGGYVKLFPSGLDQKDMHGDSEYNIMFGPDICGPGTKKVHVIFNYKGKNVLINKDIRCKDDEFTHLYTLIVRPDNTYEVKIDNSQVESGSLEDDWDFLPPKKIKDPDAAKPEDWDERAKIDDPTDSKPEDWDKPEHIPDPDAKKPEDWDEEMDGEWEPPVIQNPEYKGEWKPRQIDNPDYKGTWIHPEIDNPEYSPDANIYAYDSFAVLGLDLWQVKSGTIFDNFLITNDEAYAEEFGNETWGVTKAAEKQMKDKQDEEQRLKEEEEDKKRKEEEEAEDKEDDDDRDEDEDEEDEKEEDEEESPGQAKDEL

In the case of `Oc1cc2c(cc1O)[C@@H]1c3ccc(O)c(O)c3OC[C@]1(O)C2` [hematoxylin, Hematoxylin], the apoptotic cell numbers [1] is reported as “significant elevation of apoptotic cell numbers”, the apoptotic cell numbers [2] is reported as “not in the wild-type control” and the “wild-type calreticulin protein level” value ([3]; CALR WT cell line) is reported as “not affected”. The “wild-type calreticulin protein level” value ([3]; CALR heterozygous mutant cell line) was “up-regulation”, the “reduction of IC50 in mutant CALR Ba/F3 cell lines compared with the wild-type cell line” value [4] was 3-5 fold and the “viability of resistant cell lines in response to the treatment” value [5] was “Increased viability”. The “compound-induced down-regulation of mutant calreticulin in resistant cell lines” value [6] was “resistance towards the compound-induced down-regulation”, the “hypersensitivity towards compound treatment” value [7] was “did not show hypersensitivity” and the “binding to mutant CALR protein” value [8] was “bound”. The “mutant calreticulin protein level” value [9] was “striking down-regulation”, the “mutant calreticulin and MPL protein level” value ([10]; 8-hour time point) was “more drastic reduction” and the “time to start of decrease of mutant calreticulin and MPL” value ([10]; Ba/F3-MPL CALR WT/del79) was 4 h.
